Test results as given in ChEMBL document CHEMBL2094269, “WEHI/Eskitis Trypanosoma b. brucei screening data”.
pIC50: −log10 of the molar value.

Legend:
[1] = tested on: Trypanosoma brucei brucei; assay: microbe, parasite or virus in culture; type: functional, organism-based, STIB 795
Description: DNDI: Inhibition of Human African Trypanosomiasis (HAT), STIB 795, in vitro

[2] = DNDI: Cytotoxicity against human MRC-5 lung fibroblast cells.; conditions: IC50

SMILES | pIC50 ([1]; Trypanosoma brucei, STIB 795) | pIC50 [2] | pIC50 [1]
CCN1C=Cc2ccccc2/C1=C\c1ccc2ccccc2[n+]1CC | 7.07 | < 5.38 | –
Cc1conc1NC(c1cccs1)c1ccc2cccnc2c1O (centres undefined) | 5.24 | < 4.68 | –
COc1ccc(C(=O)O/N=C(\N)c2ccccc2Cl)cc1OC | 6.16 | < 4.68 | –
N=C(NOC(=O)N1CCOCC1)c1ccc(Br)cc1 | 6.13 | < 4.68 | –
CCCn1c(=O)c2c(nc3n2CCN3Cc2ccco2)n(C)c1=O | 5.31 | < 4.38 | –
Cc1c(-c2cccc(NC(=O)c3cccs3)c2)nc2ncccn12 | 5.29 | < 4.38 | –
CC(Nc1nc(N2CCNCC2)nc2ccccc12)c1ccccc1 (centres undefined) | 5.83 | < 5.38 | –
O=C(NCCc1csc(-c2cccc(F)c2)n1)c1cccs1 | ≥ 7.37 | < 4.38 | –
CC1CCC2C(=O)N(c3ccc(Cc4ccncc4)cc3)C(=O)C2C1 (centres undefined) | 5.27 | < 4.38 | 5.27
c1ccc(Sc2cccc3ccccc23)c(CNC2=NCCN2)c1 | 6.37 | < 4.68 | –
O=C(N/N=C(\c1ccccc1)c1ccccn1)c1ccccc1Cl | 5.75 | < 5.38 | –
COc1ccc(C2=NNc3cccc4c(OC)ccc2c34)cc1OC | 5.25 | < 4.38 | 5.27
CN1/C(=C/C=C/c2ccc3ccccc3[n+]2C)C=Cc2ccccc21 | 7.11 | < 4.98 | –
CC1CCC(C(C)C)C(OCC(O)CN2C(C)CCCC2C)C1 (centres undefined) | 5.45 | < 4.68 | –
CCOC(=O)N/N=C\c1ccc(-c2cccc(C(F)(F)F)c2)o1 | 5.50 | < 4.38 | –
O=c1cc(OC2=CS(=O)(=O)c3ccccc32)c2ccccc2o1 | 5.44 | 5.22 | –
O=C(COc1ccccc1)N/N=C/c1sc2ccccc2c1O | 5.10 | < 4.68 | –
c1ccc2c(OCCCCCCNCC3CCCO3)cccc2c1 (centres undefined) | 5.28 | < 4.38 | –
CC(C)NC[C@]1(C)CCC[C@]2(C)c3ccc(C(C)C)cc3CC[C@@H]12 | 6.33 | < 4.38 | –
O=C(N/N=C/c1sc2ccccc2c1O)c1ccc(O)cc1O | 5.35 | < 5.38 | –
NS(=O)(=O)c1ccc(/N=N/c2ccc(O)c3ncccc23)cc1 | 5.32 | < 4.68 | –
CCN(CC)c1ccc(/C=N\NC(=O)Cc2cccn2C)c(O)c1 | 5.44 | < 5.38 | –
Clc1cc2c(c3ncccc13)OCN(CCC1=CCCCC1)C2 | 5.98 | < 4.68 | –

SMILES | pIC50 ([1]; Trypanosoma brucei, STIB 795) | pIC50 [2] | pIC50 [1]
CC(C)(C)c1ccc(/C(=N\NC(=N)N)c2ccc(Cl)cc2)cc1 | 5.96 | < 4.68 | –
O=C(O)c1ccc(NNc2c3ccccc3nc3ccccc23)cc1 | 5.99 | < 4.38 | –
CC1(C)N=C(N)N=C(N)N1OCc1cccc(C2CCCCC2)c1 | 5.33 | < 4.38 | –
O=C(c1ccc(Cl)cc1)C(CN1CCOCC1)c1ccccc1 (centres undefined) | 5.51 | < 4.68 | 5.40
Cc1cc(C)c(C(=O)CC(N2CCCCC2)C(F)(F)F)c(=O)[nH]1 (centres undefined) | 5.64 | < 4.68 | –
CCOC(=O)C/C(C)=N/Nc1ccc(-n2nc(C)c(C)c2C)nn1 | 5.67 | < 4.98 | –
CC1(C)CC(=O)C(C2=C(Cl)C(=O)c3ccccc3C2=O)=C(O)C1 | 6.19 | < 4.38 | 6.23
CC(=O)CC1(O)C(=O)Nc2ccc(I)cc21 (centres undefined) | 5.50 | < 4.38 | –
Cc1cc(Cl)cc(Cl)c1OCCCCCN1CCNCC1 | 5.64 | < 4.68 | –
Cn1c(Cc2ccccc2)nn(C2CC(=O)C3OCC2O3)c1=S (centres undefined) | 5.31 | < 4.38 | –
CC1CC(C)(C)Nc2ccc(OCc3cccc4ccccc34)cc21 (centres undefined) | 6.08 | < 4.68 | –
CCOc1cc2c(cc1OCC)C(c1ccc(Cl)cc1)NCC2 (centres undefined) | 5.25 | < 4.68 | –
CC(C)/C(N)=N/OC(=O)c1ccc(I)cc1 | 6.09 | < 4.38 | –
O=C1NC(=S)NC(=O)C1=Cc1c2ccccc2cc2ccccc12 | 5.28 | < 4.38 | –
Cc1cccc(-n2nnn(C3CC(=O)C4OCC3O4)c2=S)c1C (centres undefined) | 5.28 | < 4.38 | –
COc1ccc2c(C)cc(Sc3cccc4cccnc34)nc2c1 | 5.25 | < 4.38 | –
CC(C)(C)C1C/C(=C\c2cccnc2)C(=O)/C(=C/c2cccnc2)C1 (centres undefined) | 7.01 | < 5.38 | –
O=C(CCN1CCCCC1)Nc1ccc(OC(F)(F)Cl)cc1 | 5.37 | < 4.38 | 5.41
N/C(=N\OC(=O)C12CC3CC(CC(C3)C1)C2)c1ccccc1Cl | 6.43 | < 4.38 | –
O=c1c(Oc2ccccc2Br)coc2cc(O)ccc12 | 5.35 | < 4.38 | –
CCOc1cc(-n2ncc(Cl)c(Cl)c2=O)nc(SC)n1 | 5.82 | < 5.38 | –
Cc1cc(/C=N/n2cnnc2)c(C)n1-c1cccc(C(F)(F)F)c1 | > 7.40 | < 4.38 | –
c1ccc2cc3c(NCCCNC4CCCCC4)ccnc3cc2c1 | 6.53 | 5.31 | –

SMILES | pIC50 ([1]; Trypanosoma brucei, STIB 795) | pIC50 [2] | pIC50 [1]
COC(=O)C(NC(=O)c1c(Cl)sc2nnsc12)C(C)C (centres undefined) | 5.39 | < 5.38 | –
Cc1cc(OCC(O)CNC(C)c2ccccc2)cc(C)c1Cl (centres undefined) | 5.33 | < 4.38 | –
Oc1c(C(Nc2nccs2)c2ccccn2)ccc2cccnc12 (centres undefined) | 6.01 | 5.38 | –
NCCCCNCCOC(c1ccc(F)cc1)c1ccc(F)cc1 | 5.59 | < 4.68 | –
CC1CCN(Cc2cc(Br)c(O)c3ncccc23)CC1 | 5.79 | 5.27 | –
COc1ccc2c(-c3ccccc3)cc(NCCCN(C)C)nc2c1 | 5.44 | < 4.68 | –
CN1CCN(Cc2cc(Br)c3cccnc3c2O)CC1 | 5.29 | < 5.38 | –
CC(C)CC(=O)NC(=C(Cl)Cl)S(=O)(=O)c1ccccc1 | 5.27 | < 5.38 | –
COc1ccc(C)cc1/N=N/c1ccc(O)c2nc(/C=N/O)ccc12 | 5.63 | < 4.68 | –
O=C(N/N=C/c1cc2c3c(c1O)CCCN3CCC2)c1ccncc1 | 6.54 | < 6.38 | –
CCc1nnc(NC(=O)c2cc3ccc4ccc(C)nc4c3[nH]2)s1 | 6.31 | < 4.38 | –
C=CCn1c(=N)n(CC(O)COc2ccccc2C)c2ccccc21 (centres undefined) | 6.14 | < 4.68 | –
CCCC(=O)NC(c1cccc(F)c1)c1ccc2cccnc2c1O (centres undefined) | 5.15 | < 4.68 | –
CC(C)NCC(O)CNc1cccc2c1C(=O)c1ccccc1C2=O (centres undefined) | 5.47 | < 5.38 | –
O=C1CC(n2nnn(-c3ccccc3Cl)c2=S)C2COC1O2 (centres undefined) | 5.34 | < 4.38 | –
O=S1(=O)CCC(N2COc3c(cc(Cl)c4cccnc34)C2)C1 (centres undefined) | 5.29 | < 5.38 | –
c1ccc(COc2ccc(-c3cc(C4CCNCC4)[nH]n3)cc2)cc1 | 5.71 | < 4.98 | –
Cc1cccc2c1NC(=O)C2(c1ccc(O)cc1)c1ccc(O)cc1 | 5.24 | < 4.68 | –
CC(C)Nc1ccc(Nc2ccnc3cc4ccccc4cc23)cc1 | 5.59 | < 4.38 | –
S=C(N/N=C(/c1ccccc1)c1ccccn1)Nc1ccccc1 | 5.32 | < 5.38 | –
Cc1ccc(C(OCC(C)(C)C[N+](C)(C)C)c2ccccc2)cc1 (centres undefined) | 5.17 | < 4.38 | –
